# Laboratory results taken from US8101158B1, “Methods for treating cerebrovascular disease comprising administering an agent that inhibits prokineticin receptor activity” (The Regents of the University of California, priority 2007, dated 2012).
# “Also recorded” adds a separate entry of the source.
# B1: PK2: secreted peptide ligand of G-protein coupled receptors PKR1 and PKR2 (protein, UniProt Q9HC23 28-129, looked up)
# Prokineticin-2: AVITGACDKDSQCGGGMCCAVSIWVKSIRICTPMGKLGDSCHPLTRKNNFGNGRQERRKRKRSKRKKEVPFFGRRMHHTCPCLPGLACLRTSFNRFICLAQK
# Legend:
# PK2 mRNA [1] = test: PK2 mRNA in situ hybridization in PTZ seizure model; assay type: in vivo, mice; conditions: data not shown
# Method: (§1) All injections were administered through intraperitoneal injections (i.p.) Pilocarpine: to reduce muscarinic peripheral effects, all animals injected with pilocarpine were given 2 mg/kg of methylscopolamine (dissolved in saline 0.4 mg/ml) 30 minutes prior to injection. Pilocarpine-induced seizure was then initiated by injecting littermate mice (C57BL-6 or mix C57BL-6 with CD1) i.p. with (200 or 400 mg/kg) pilocarpine, respectively. Thereafter, animals were then assessed for seizure, as describe above, and sacrificed according to the following time course (30, 1 hr, 3 hrs, 6 hrs, 12 hrs, 36 hrs, 72 hrs). For groups within the pentylenetetrazol (metrazol, PTZ), mice were administered 75 mg/kg PTZ and subsequently monitored for 20 minutes. PTZ kindling were accomplished by administering 45 mg/kg PTZ every other day for 14 days. […] Each animal was injected and monitored for S5 seizure. […]
# (§2) In situ hybridization was done according to Cheng et al 2001. […] Sections were then cut at 20-μm and processed for in situ as described by Winzer-Serhan et al. mRNA distributions from autoradiograms and emulsion-dipped sections were then analyzed and quantified with a system called MCID (Imaging Research). Calibration curve was generated by optical density versus radioactivity (disintegrations per minute (d.p.m.) per mg tissue wet weight) using 14 C standards. […]
# PK2 mRNA [2] = test: PK2 mRNA in situ hybridization after pilocarpine-induced seizure; assay type: in vivo, mice; conditions: CeA; for PK2 mRNA induction after pilocarpine in diazepam-pretreated animals: CA3 and dentate gyrus, diazepam prior to pilocarpine
# Method: All injections were administered through intraperitoneal injections (i.p.) Pilocarpine: to reduce muscarinic peripheral effects, all animals injected with pilocarpine were given 2 mg/kg of methylscopolamine (dissolved in saline 0.4 mg/ml) 30 minutes prior to injection. Pilocarpine-induced seizure was then initiated by injecting littermate mice (C57BL-6 or mix C57BL-6 with CD1) i.p. with (200 or 400 mg/kg) pilocarpine, respectively. Thereafter, animals were then assessed for seizure, as describe above, and sacrificed according to the following time course (30, 1 hr, 3 hrs, 6 hrs, 12 hrs, 36 hrs, 72 hrs). For groups within the pentylenetetrazol (metrazol, PTZ), mice were administered 75 mg/kg PTZ and subsequently monitored for 20 minutes. PTZ kindling were accomplished by administering 45 mg/kg PTZ every other day for 14 days. Animals that reach S5 on the first day were not included in the experiments. Each animal was injected and monitored for S5 seizure. Once S5 is reached, the animal was considered kindled, and was taken out of the injection regimen.
# as §2, with “2001. Antisense and sense riboprobes containing the 3′ UTR of mouse PK2 (GenBank accession number AF487279; residues 1147-2211), PKR1 (3′ UTR) and PKR2 (3′ UTR) were generated.” for “2001.”
# A time course analysis for PK2 mRNA induction and upregulation in the pilocarpine-induced seizure model was performed. A total of seven time points (30 minutes, 1 hr, 3 hrs, 6 hrs, 12 hrs, 36 hrs, and 72 hrs post pilocarpine injection) were analyzed. […]
# PKR2 mRNA = PKR2 mRNA in situ hybridization after pilocarpine-induced seizure; assay type: in vivo, mice
# Method: as §1, §2
# [3] = Pharmacokinetic study, brain concentration; assay type: in vivo; conditions: intraperitoneal injection of 60 mg/kg in rats
# Method: (§3) Via custom synthesis, 10 grams of one of the morpholine carboximide derivatives was obtained, with chemical name of (±)-4-Benzyl-N-(3,4-dihydro-2H-1,5-benzodioxepin-7-ylmethyl)-N-isobutylmorpholine-2-carboxamide, compound I (FIG. 5). Compound I was tested using the in vitro ischemia model. […] We utilized compound I as a parent compound to test the potential therapeutic effect of blocking PKR2 in cerebral ischemia models.
# [4] = tested on: brain infarct in experimental stroke model; test: Experimental stroke model, infarct volume after i.p. compound I; assay type: in vivo, rats; conditions: 50 mg/kg i.p., 30 minutes pre-ischemia; n=5, p<0.05; listed as compound I
# Method: TTC staining and infarct quantification was performed as follows. 24 hours after reperfusion, rats were perfused with ice cold PBS and the brain was sectioned into 2 mm thickness. Brain sections were stained in 2,3,5 triphenyl tetrazolium chloride (TTC) solution for 15 minutes or until infarct was visible, followed by fixation with 4% PFA overnight. Next day the brain sections were aligned from rostral to caudal and brain sections were scanned. Infarct size and volume was quantitated using the software Image J. Infarct and cortex was outlined and measured using Image J. Percent infarct represents infarct area over entire cortex area. Percent volume was measured by multiplying the area by the section thickness (2 mm). Compound I reduced infarct size in ischemia models. The effect of compound I in experimental stroke models was tested. […] Compound I-treated rats had smaller infarct at almost every level.
# PKR2 = molecular target: T1, PKR2 (Homo sapiens, UniProt Q8NFJ6); test: Antagonism of PK2-induced calcium influx (luminescence) in CHO cells stably expressing PKR2; assay type: cell-based; conditions: luminescence (RLU), read-out: inhibition constant (Ki) for blocking activation of PKR2 by PK2
# T1 construct: expressed in transfected cells
# T1 sequence (Q8NFJ6 whole entry): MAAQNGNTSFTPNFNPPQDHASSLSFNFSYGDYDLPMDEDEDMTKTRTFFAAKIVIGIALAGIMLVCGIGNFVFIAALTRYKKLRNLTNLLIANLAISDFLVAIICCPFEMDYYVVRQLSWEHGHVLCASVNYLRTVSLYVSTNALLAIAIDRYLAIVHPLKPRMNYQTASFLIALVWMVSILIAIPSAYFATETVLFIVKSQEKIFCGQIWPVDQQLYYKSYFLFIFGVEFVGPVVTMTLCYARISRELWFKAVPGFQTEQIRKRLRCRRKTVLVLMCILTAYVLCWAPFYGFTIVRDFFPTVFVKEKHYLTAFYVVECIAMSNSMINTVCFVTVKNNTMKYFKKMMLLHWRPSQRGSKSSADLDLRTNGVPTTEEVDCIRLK
# Method: FIG. 4 is a graphical representation showing the antagonistic effect of Compound I in Chinese Hamster Ovary cells that stably express PKR2. Dose-dependent response of PKR2 activation by PK2 in the presence of different concentrations of Compound I was measured with a luminometer. RLU is an index for calcium influx measurement for this luminescence-based assay. The dose-dependent calcium influx activated by PK2 was antagonized by Compound I. The inhibition constant obtained from this experiment was approximately 15 nM.
# as §3
# [5] = tested on: locomotor running wheel activity; conditions: PK2 0.3 nmol; cited from earlier work
# [6] = tested on: GABA (α1β1γ2) currents in oocytes with PKR2; test: GABA-evoked currents in Xenopus oocytes, two-electrode voltage clamp; assay type: cell-based, Xenopus laevis; conditions: GABA 10 uM; PK2 10 nM-30 nM; over 60 min; holding potential -70 mV
# Method: FIG. 13 is a series of graphical representations showing PK2-induced reduction of GABA (α1β1γ2) currents. […] GABA (10 uM) evoked GABA currents without PK2 show no appreciable reduction over a 70 min course. Addition of PK2 (10 nM-30 nM) decreased GABA-evoked current over a period of 60 min. FIG. 13B is a graphical representation showing the average percent reduction of normalized GABA-evoked currents after addition of PK2. […] One-way Anova with post-Dunnet correction indicates (p<0.05) across all time points when compared to normalized base.
# Multiple studies have found a complex system of inhibition, disinhibition, and various physiological consequences, depending on the circuitry and subtypes involved; all of which have important consequences in epileptogenesis. The role of PK2 and GABAA receptor, especially with the αβγ-GABAA which are found in the amygdale was investigated. […]. To do this study, a mixture of RNA containing α1β1γ2S with or without PKR2 was injected into Xenopus oocytes. GABA currents were then measured using the two-electrode voltage clamp with a holding potential of −70 mV, 4-6 days post injection. Repeated exposure (every 10 mins) with GABA (10 μM) to Xenopus oocytes (αβγ-GABAA or […] containing) induced a reproducible and stable current over a long-term recording (>1 hr).
# [7] = tested on: brain infarct after distal MCAO; test: Distal MCAO experimental stroke with ICV delivery of PK2, TTC infarct quantitation; assay type: in vivo, rats; conditions: PK2 0.3 nmol ICV within one hour after reperfusion, 24 hr, n=5, p<0.001
# Method: Distal Middle Cerebral Artery Occlusion (dMCAO) was performed in the PK2 intracerebroventricular […] infusion study. Anesthesia induced by 5% isoflurane and maintained by 2-3% isoflurane. A ventral midline incision was made, and the two CCAs were isolated. […] were placed around the CCAs, and the animal was placed on its right side. A 2-cm vertical scalp incision was made midway between the left eye and ear. The temporalis muscle was bisected and a 2-mm burr hole was made at the junction of the zygomatic arch and squamous bone to expose the distal MCA. The dura was cut and the distal MCA was permanently electro-cauterized. The CCA were then occluded with clips for 1 hour, and the animals were sacrificed and perfused after 24 hr. PK2 (0.3 nmol) was stereotaxically infused prior or post-ischemia. […] Body temperature, ECG, and respiration rate were monitored every 15 minutes and kept in physiological ranges. […] TTC staining and infarct quantification was performed as follows. […] Infarct size and volume was quantitated using the software Image J. Infarct and cortex was outlined and measured using Image J. Percent infarct represents infarct area over entire cortex area. Percent volume was measured by multiplying the area by the section thickness (2 mm). […] FIGS. 2B and C are graphs showing quantitation of infarct volume. […]
molecule,measurement,setting,value
"C1CCc2nnnn2CC1 [PTZ, Pentylenetetrazol]",PK2 mRNA induction in PTZ seizure model,PK2 mRNA [1],only a modest upregulation of PK2 mRNA at the medial nucleus of the amygdale
"CN1C(=O)CN=C(c2ccccc2)c2cc(Cl)ccc21 [Diazepam, diazepam]",PK2 mRNA induction after pilocarpine in diazepam-pretreated animals,PK2 mRNA [2],eliminated induction; also recorded: blocks induction of PK2
same,PK2 mRNA induction after pilocarpine in diazepam-pretreated animals,PK2 mRNA [2]; listed as diazepam,completely abolished
same,PKR2 mRNA induction after pilocarpine with diazepam,PKR2 mRNA; seizure activity blocked with diazepam,eliminated induction
CC[C@@H]1C(=O)OC[C@@H]1Cc1cncn1C [pilocarpine],peak PK2 mRNA induction over basal level,PK2 mRNA [2]; 6 hr post pilocarpine injection,over 100 fold
same,peak PKR2 mRNA induction over basal level,"PKR2 mRNA; CA1/CA2, 6 hr post pilocarpine injection",about 7 fold
"CC(C)CN(Cc1ccc2c(c1)OCCCO2)C(=O)C1CN(Cc2ccccc2)CCO1 (racemic) [Compound I, (±)-4-Benzyl-N-(3,4-dihydro-2H-1,5-benzodioxepin-7-ylmethyl)-N-isobutylmorpholine-2-carboxamide]",brain concentration,[3],significant brain concentration
same,infarct volume versus vehicle PEG400,[4],significantly reduced infarct volume
same,Ki,PKR2,~15 nM
B1,duration of inhibitory response in locomotor running wheel activity,[5],3 to 5 h
same,maximum inhibition of GABA-evoked currents,[6],75 % of normalized baseline
same,infarct volume versus saline,[7],significantly increased overall average infarct volume
